Assay [1] has as its target T1, human histamine H4 receptor (Homo sapiens, UniProt Q9H3N8). Kind of assay: biochemical.
Assay [2] deals with T1, human histamine H4 receptor. The experiment in a line: Binding assay on recombinant human histamine H4 receptor (3H-histamine displacement). Particulars: read-out: Binding Assay Ki; repeated in the chemotaxis table.
In assay [3] the test system is Mast cells. Kind of assay: Mast cell chemotaxis assay (histamine-induced, transwell). The assay is classed as cell-based. Particulars: 10 μM histamine; HR antagonist 1 μM. The method, then:
Mast Cell Chemotaxis Assay
Mast cell accumulation in mucosal epithelia is a well-known characteristic of allergic rhinitis and asthma. Transwells (Costar, Cambridge, Mass.) of a pore size 8 μm were coated with 100 μL of 100 ng/mL human fibronectin (Sigma) for 2 h at room temperature. […] Mast cells (2×10^5/well) were added to the top chamber. The plates were incubated for 3 h at 37° C. Transwells were removed, and the cells in the bottom chamber were counted for sixty seconds using a flow cytometer.

The test system of assay [4] is human eosinophils. The experiment in a line: Inhibition of histamine-induced eosinophil shape change (GAFS). Type of assay: cell-based. Particulars: for effect on histamine-induced shape change: human eosinophils. The method, then: Eosinophil accumulation in sites of allergic reaction is a well-known characteristic of allergic rhinitis and asthma. […] Shape change is a cellular characteristic that precedes eosinophil chemotaxis.
Human granulocytes were isolated from human blood by a Ficoll gradient. The red blood cells were lysed with 5-10X Qiagen lysis buffer at room temperature for 5-7 min. Granulocytes were harvested and washed once with FACS buffer. The cells were resuspended at a density of 2×10^6 cells/mL in reaction buffer. […] Ten minutes later the cells were transferred to ice and fixed with 250 μL of ice-cold fixative buffer (2% formaldehyde) for 1 min.
The change in shape of eosinophils is due to cytoskeletal changes that precede chemotaxis and thus is a measure of chemotaxis.

[5] abbreviates: histamine 0 μM, HR antagonist 10 μM.
Setting [6] is: histamine 0.01 μM, HR antagonist 10 μM or none.
[7] abbreviates: histamine 0.1 μM, HR antagonist 10 μM or none.
[8] abbreviates: histamine 1 μM, HR antagonist 10 μM or none.
The mark [9] stands for this setting: histamine 10 μM, HR antagonist 10 μM or none.

T1 sequence (Q9H3N8 whole entry): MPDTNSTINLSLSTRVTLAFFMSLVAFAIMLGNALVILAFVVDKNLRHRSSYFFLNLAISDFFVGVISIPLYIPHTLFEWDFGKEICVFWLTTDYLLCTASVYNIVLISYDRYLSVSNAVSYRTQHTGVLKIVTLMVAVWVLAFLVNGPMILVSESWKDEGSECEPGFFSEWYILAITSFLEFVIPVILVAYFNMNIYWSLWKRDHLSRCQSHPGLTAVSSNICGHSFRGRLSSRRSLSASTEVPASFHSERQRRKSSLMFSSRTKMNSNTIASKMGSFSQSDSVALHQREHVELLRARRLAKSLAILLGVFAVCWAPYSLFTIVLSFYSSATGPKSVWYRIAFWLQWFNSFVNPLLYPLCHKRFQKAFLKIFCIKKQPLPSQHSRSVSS

A word on the Ki: it is the dissociation constant of the complex between target and ligand, obtained from inhibition or displacement. On to `CN1CCN(C(=O)c2nc3cc(Cl)ccc3[nH]2)CC1` [Example 6, (5-Chloro-1H-benzoimidazol-2-yl)-(4-methyl-piperazin-1-yl)-methanone], for which the inhibitory constant (Ki) in assay [1] and in assay [2] was 25 nM each time.
Turning to `O=C(c1nc2cc(Cl)ccc2[nH]1)N1CCNCC1` [Example 7, (5-Chloro-1H-benzoimidazol-2-yl)-piperazin-1-yl-methanone], the inhibitory constant (Ki) in assay [1] and in assay [2] was 87 nM throughout. Further, the “% Inh” value in assay [3] is reported as 8%.
Consider `CN1CCN(C(=O)c2nc3cc(F)c(F)cc3[nH]2)CC1` [Example 9, (5,6-Difluoro-1H-benzoimidazol-2-yl)-(4-methyl-piperazin-1-yl)-methanone], for which the inhibitory constant (Ki) in assay [1] and in assay [2] was 28 nM each time.
For `Cc1ccc2[nH]c(C(=O)NC3CC4CCC(C3)N4C)nc2c1` (stereo not shown) [Example 25, 5-Methyl-1H-benzoimidazole-2-carboxylic acid (8-methyl-8-aza-bicyclo[3.2.1]oct-3-yl)-amide], the Ki in assay [1] and in assay [2] was 613 nM throughout.
For the compound `CN1CCN(C(=O)c2nc3cc(C(=O)c4ccccc4)ccc3[nH]2)CC1` [Example 40, (5-Benzoyl-1H-benzoimidazol-2-yl)-(4-methyl-piperazin-1-yl)-methanone], the affinity in assay [1] corresponds to a Ki of 8000 nM.
Consider `CN1CCN(C(=O)c2nc3c(Cl)cccc3[nH]2)CC1` [Example 41, (4-Chloro-1H-benzoimidazol-2-yl)-(4-methyl-piperazin-1-yl)-methanone], for which, in assay [1], the inhibition constant (Ki) was 57 nM.
The same measure, in the same setting: the result for `CN1CCN(C(=N)c2nc3cc(Cl)ccc3[nH]2)CC1` [Example 45, C-(5-Chloro-1H-benzoimidazol-2-yl)-C-(4-methyl-piperazin-1-yl)-methyleneamine] reads 110 nM; that for `CN1CCN(C(=O)c2nc3c(F)cc(F)cc3[nH]2)CC1` [Example 46, (4,6-Difluoro-1H-benzoimidazol-2-yl)-(4-methyl-piperazin-1-yl)-methanone], 64 nM; that for `CN1CCN(C(=O)c2nc3cc([N+](=O)[O-])ccc3[nH]2)CC1` [Example 47, (4-Methyl-piperazin-1-yl)-(5-nitro-1H-benzoimidazol-2-yl)-methanone], 158 nM.
The compound `Cc1c(F)ccc2[nH]c(C(=O)N3CCN(C)CC3)nc12` [Example 48, (5-Fluoro-4-methyl-1H-benzoimidazol-2-yl)-(4-methyl-piperazin-1-yl)-methanone] had an inhibition constant (Ki) in assay [1] of 23 nM.
As for `CN1CCN(C(=O)c2nc3cc(Br)ccc3[nH]2)CC1` [Example 49, (5-Bromo-1H-benzoimidazol-2-yl)-(4-methyl-piperazin-1-yl)-methanone], the affinity in assay [1], expressed as Ki, was 51 nM.
Take `CN(C)CCOC(c1ccccc1)c1ccccc1` [diphenhydramine]: the “Fold Change (eosinophil shape change)” value in assay [4] (setting [5]) is given as 1.00; in assay [4] (setting [6]), 1.03; in assay [4] (setting [7]), 1.18; in assay [4] (setting [8]), 1.50; in assay [4] (setting [9]), 1.63. The “effect on histamine-induced shape change” value in assay [4] was “did not alter the histamine-induced shape change”.
In the case of `CNC(=C[N+](=O)[O-])NCCSCc1ccc(CN(C)C)o1` [ranatidine], the “Fold Change (eosinophil shape change)” value in assay [4] (setting [5]) was 1.00; in assay [4] (setting [6]) it was 1.04; in assay [4] (setting [7]), 1.21; in assay [4] (setting [8]), 1.49; in assay [4] (setting [9]), 1.64. Moreover, the “effect on histamine-induced shape change” value in assay [4] is “did not alter the histamine-induced shape change”.
